# Source: PMC9500038, “A fungal tolerance trait and selective inhibitors proffer HMG-CoA reductase as a herbicide mode-of-action” (Nature Communications, 2022)
# “Also recorded” adds a separate entry of the source.
# Columns and labels:
# AtHMG1 = target: T1, AtHMG1 (Arabidopsis thaliana, UniProt P14891); assay: biochemical; type: biochemical; details: for selectivity for AtHMG1 in vitro (dose-response): inhibition profiles AtHMG1 versus HsHMGCR; for IC50: wild-type AtHMG1, in vitro
# T1 construct: AtHMG1 (Uniprot P14891, At1g76490, residues 121–592); His6 (N); TEV cleavage site (N); made in house; host or cells: E. coli T7 SHuffle Express
# T1 sequence (P14891 121-592): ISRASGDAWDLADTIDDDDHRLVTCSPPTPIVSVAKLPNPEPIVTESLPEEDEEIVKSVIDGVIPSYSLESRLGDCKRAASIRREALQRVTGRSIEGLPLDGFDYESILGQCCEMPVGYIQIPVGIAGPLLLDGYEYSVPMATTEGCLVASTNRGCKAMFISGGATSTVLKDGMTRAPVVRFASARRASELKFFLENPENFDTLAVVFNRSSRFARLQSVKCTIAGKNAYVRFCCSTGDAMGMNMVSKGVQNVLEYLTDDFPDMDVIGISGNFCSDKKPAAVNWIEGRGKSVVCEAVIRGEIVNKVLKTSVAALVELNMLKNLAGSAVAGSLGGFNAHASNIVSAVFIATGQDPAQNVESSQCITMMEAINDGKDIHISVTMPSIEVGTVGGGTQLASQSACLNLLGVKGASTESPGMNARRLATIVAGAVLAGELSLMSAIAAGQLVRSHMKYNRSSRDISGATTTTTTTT
# Description: An E. coli codon-optimised DNA sequence encoding the conserved […] region of AtHMG1 (Uniprot P14891, At1g76490, residues 121–592) was cloned into pQE30 (Qiagen) following an N-terminal His6-tag and tobacco etch virus cleavage site. The protein was expressed in the T7 SHuffle Express strain of E. coli (New England Biolabs) transformed with pREP4 (Qiagen) with the proteins expressed and purified as previously described. Briefly, cultures were grown in lysogeny broth containing 100 μg/mL ampicillin and 35 μg/mL kanamycin at 30 °C to an OD600 of 0.8–1.0. Cells were cooled to 16 °C before the expression was induced with 0.1 mM isopropyl β-D-1-thiogalactopyranoside. Following overnight culture, cells were harvested by centrifugation and lysed by ultrasonication in 100 mM HEPES (pH 7.5), 150 mM sodium chloride, 5 mM dithiothreitol, 0.1% Triton X-100. Lysed cells were then centrifuged (15,000×g) and the supernatant was incubated in 30 mL batches with Ni-NTA resin overnight at 4 °C. The resin was then washed with 50 mL of 100 mM HEPES (pH 7.5), 150 mM sodium chloride, 5 mM dithiothreitol followed by 50 mL of 100 mM HEPES (pH 7.5), 150 mM sodium chloride, 5 mM dithiothreitol, 20 mM imidazole. The protein was then eluted with 50 mL of 100 mM HEPES (pH 7.5), 150 mM sodium chloride, 5 mM dithiothreitol, 300 mM imidazole. Eluted protein was concentrated with a 30 kDa centrifugal filter unit (Millipore) and purified by size-exclusion chromatography (HiLoad 16/600 Superdex 200) in 100 mM HEPES (pH 7.5), 150 mM sodium chloride, 5 mM dithiothreitol. The protein was assessed for purity by SDS-PAGE, and protein concentration was determined by spectrophotometry.
# (§1) AtHMG1 described above and human HMGR (HsHMGCR, Uniprot P04035, residues 441–888, cloned as above) were purified as above, and activity was determined by spectrophotometric measurement of the decrease in absorbance at 340 nm that occurs with NADPH oxidation in the presence of substrate HMG-CoA (Sigma-Aldrich). Reactions were performed with an assay buffer consisting of 150 mM sodium chloride, 5 mM dithiothreitol, 50 mM HEPES pH 7.4 and 2% DMSO. For kinetics determinations, a final concentration of 150 nM enzyme was incubated at 37 °C in 300 μM NADPH and different concentrations of HMG-CoA. Non-linear regression analysis was performed with GraphPad Prism 9 by plotting the initial reaction rates, v0, interpolated from a standard curve against the substrate concentration. The Michaelis–Menten constant, Km, was determined by fitting the data with a Michaelis–Menten equation and values for kcat were calculated by dividing Vmax by the molar enzyme concentration. To calculate relative specific activity, 500 nM of test compounds were pre-incubated at 37 °C with enzyme and 300 μM NADPH for 15 min before adding HMG-CoA to 200 μM. Resultant values were background subtracted and normalised to the average of the no-inhibitor control. For IC50 determinations, the same protocol was used, but varying inhibitor concentrations. Rosuvastatin data were plotted with a four-parameter (WT), and normalised response (L558T) non-linear regression model and atorvastatin and analogues were plotted with a normalised response with variable slope non-linear regression model.
# AtHMG1-L558T = target: T2, AtHMG1-L558T (Arabidopsis thaliana, UniProt P14891, L558T); assay: biochemical; type: biochemical; details: for AtHMG1-L558T activity in the presence of statin: 500 nM, in comparison to wild-type
# T2 construct: AtHMG1 (Uniprot P14891, At1g76490, residues 121–592); His6 (N); TEV cleavage site (N); made in house; host or cells: E. coli T7 SHuffle Express
# T2 sequence (P14891 121-592 L558T): as the sequence (P14891 121-592) above, with L438T counted along it
# Description: as §1
# HsHMGCR = target: T3, HsHMGCR (Homo sapiens, UniProt P04035); assay: In vitro HMGR assay (NADPH depletion), HsHMGCR; type: biochemical
# T3 construct: HsHMGCR, Uniprot P04035, residues 441–888; His6 (N); TEV cleavage site (N); made in house; host or cells: E. coli T7 SHuffle Express (by 'cloned as above ... purified as above')
# T3 sequence (P04035 441-888): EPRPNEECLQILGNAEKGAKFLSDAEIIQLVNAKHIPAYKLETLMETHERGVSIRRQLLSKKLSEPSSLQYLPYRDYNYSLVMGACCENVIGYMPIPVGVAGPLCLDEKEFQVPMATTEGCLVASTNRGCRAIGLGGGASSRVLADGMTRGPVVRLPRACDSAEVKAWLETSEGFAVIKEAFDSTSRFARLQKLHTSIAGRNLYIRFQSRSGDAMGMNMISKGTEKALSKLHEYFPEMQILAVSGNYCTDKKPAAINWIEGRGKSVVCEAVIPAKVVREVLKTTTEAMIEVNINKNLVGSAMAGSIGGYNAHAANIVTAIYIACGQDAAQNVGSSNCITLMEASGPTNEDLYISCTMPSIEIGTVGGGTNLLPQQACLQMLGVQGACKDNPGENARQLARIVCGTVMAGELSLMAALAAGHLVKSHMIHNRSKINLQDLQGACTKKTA
# Description: as §1, with “Rosuvastatin data were plotted with a four-parameter (WT), and normalised response (L558T) non-linear regression model and atorvastatin and analogues were plotted with a normalised response with variable slope non-linear regression model.” left out
# A. thaliana = assay: Herbicidal activity assay on soil, pre- and post-emergence; type: in vivo, Arabidopsis thaliana; details: for herbicidal activity: pre- and post-emergence
# Description: Approximately 30 seeds of A. thaliana (accession Col-0) or E. tef were sown in 63 × 63 × 59 mm pots of Irish peat (Bord na Móna Horticulture Ltd, Newbridge, Ireland). Seeds were incubated in the dark for 3 days at 4 °C to synchronise germination. A single pre-emergence treatment (day 0) was performed when these seeds were transferred to a growth room at 22 °C with a 16:8 h light:dark photoperiod and 60% relative humidity. Two post-emergence treatments were performed following emergence of the seedlings (day 1) at days 4 and 7. Plants were watered accordingly throughout the experiment to maintain adequate moisture and photographed on day 16. Treatments were conducted with rosuvastatin, simvastatin, fluvastatin, atorvastatin (AK Scientific), pravastatin (BOC Sciences), lovastatin (Sapphire Bioscience), mevastatin, pitavastatin (Focus Bioscience), glyphosate, RoundUp® and atorvastatin analogues (1–9). To treat, 0.5 mL of each compound in a final concentration of 2% dimethyl sulfoxide (DMSO) and 0.02% Brushwet (SST Dandenong, Australia) was pipetted onto seedlings. Full experimental details and characterisation of atorvastatin analogue 1–9 synthesis can be found in Supplementary Method 1 and Supplementary Figs. 7–62. Growth inhibition was quantified by detecting green pixels for healthy seedlings using ImageJ (National Institutes of Health, 1.53 v) and the ‘Threshold Colour’ plug-in with the following settings: hue 50–110, saturation 125–255, brightness 30–255[67]. Images were converted into 8-bit format, and pixels measured over the same area. Data were normalised to a negative control to provide percentage inhibition.
# [1] = test system: 35 S::AtHMG1-L558T A. thaliana lines; type: in vivo, Arabidopsis thaliana
# Description: DNA encoding the full-length AtHMG1 protein (Uniprot P14891, residues 1–592) and the corresponding L558T mutant were cloned into a derivative of the pMDC43 binary vector[75] to yield 35 S::AtHMG1 and 35 S::AtHMG1-L558T transgenes, respectively. These constructs were then introduced into Agrobacterium tumefaciens strain LBA4404 and separately used to transform A. thaliana by the floral dip method[76],[77]. Seeds (T0/1) of transformed plants were collected and surface sterilised using 600 µL 70% ethanol, 750 µL 100% ethanol and soaked in 800 µL 50% bleach for 8 min, before washing with 800 µL sterile water and resuspension with 0.1% agar. Selection was performed on 30 µg/mL hygromycin growth medium (1% agar, 1% glucose, 0.45% Murashige & Skoog salts with vitamins, 0.3% 2-(N-morpholino)-ethanesulfonic acid (MES) (v/v), pH 5.7) in a growth room at 22 °C with 16:8 h light:dark photoperiod and 60% relative humidity. Surviving plants were transferred to 63 ×63 × 59 mm pots of Irish peat and grown to maturity in the same growth conditions. Seeds from plants with an adequate seed yield were then sterilised and selected again as described above with 30 µg/mL hygromycin growth medium. […] Plates were sealed with porous tape and grown for a minimum of 10 days with the growth conditions described above. Plates were then imaged, and growth quantified using ImageJ as described above. Total green pixels were normalised against negative controls for the respective lines (2% DMSO and water) to provide percentage inhibition. […] Growth inhibition at varying concentrations of hygromycin and rosuvastatin were plotted with a four-parameter non-linear regression model using GraphPad Prism 9.
# [2] = test system: 35 S::AtHMG1 A. thaliana lines; assay: In planta statin resistance assay, 35 S::AtHMG1 lines; type: in vivo; details: Arabidopsis thaliana; 19 T2 lines combined; read-out: IC50 growth inhibition, 35 S::AtHMG1 lines
# Description: (§2) DNA encoding the full-length AtHMG1 protein (Uniprot P14891, residues 1–592) and the corresponding L558T mutant were cloned into a derivative of the pMDC43 binary vector[75] to yield 35 S::AtHMG1 and 35 S::AtHMG1-L558T transgenes, respectively. These constructs were then introduced into Agrobacterium tumefaciens strain LBA4404 and separately used to transform A. thaliana by the floral dip method[76],[77]. Seeds (T0/1) of transformed plants were collected and surface sterilised using 600 µL 70% ethanol, 750 µL 100% ethanol and soaked in 800 µL 50% bleach for 8 min, before washing with 800 µL sterile water and resuspension with 0.1% agar. Selection was performed on 30 µg/mL hygromycin growth medium (1% agar, 1% glucose, 0.45% Murashige & Skoog salts with vitamins, 0.3% 2-(N-morpholino)-ethanesulfonic acid (MES) (v/v), pH 5.7) in a growth room at 22 °C with 16:8 h light:dark photoperiod and 60% relative humidity. Surviving plants were transferred to 63 ×63 × 59 mm pots of Irish peat and grown to maturity in the same growth conditions. Seeds from plants with an adequate seed yield were then sterilised and selected again as described above with 30 µg/mL hygromycin growth medium. […] Plates were sealed with porous tape and grown for a minimum of 10 days with the growth conditions described above. Plates were then imaged, and growth quantified using ImageJ as described above. […]
# [3] = test system: wild-type (WT) A. thaliana; assay: In planta statin resistance assay, non-transformed WT; type: in vivo; details: Arabidopsis thaliana; growth medium, green pixels; read-out: IC50 growth inhibition, non-transformed WT
# Description: as §2
smiles,measurement,setting,value
CC(C)c1c(C(=O)Nc2ccccc2)c(-c2ccccc2)c(-c2ccc(F)cc2)n1CC[C@@H](O)C[C@@H](O)CC(=O)O [atorvastatin],selectivity for AtHMG1 in vitro (dose-response),AtHMG1,not selective
same,AtHMG1-L558T activity in the presence of statin,AtHMG1-L558T,retained activity
O=C(O)C[C@H](O)C[C@H](O)CCn1c(-c2ccc(F)cc2)c(-c2ccccc2)c(C(=O)Nc2ccccc2)c1C1CCC1 [compound 7],specificity for AtHMG1 over HsHMGCR,"AtHMG1; in vitro, from IC50 dose-response curves",> 20 fold
same,selectivity in vitro for AtHMG1 over HsHMGCR,AtHMG1; initial screen at 500 nM,selective; also recorded: preference for AtHMG1 over HsHMGCR
same,IC50,AtHMG1,32 nM
same,IC50,HsHMGCR,890 nM
same,herbicidal activity,A. thaliana,retained herbicidal activity
O=C(O)C[C@H](O)C[C@H](O)CCn1c(-c2ccc(F)cc2)c(-c2ccccc2)c(C(=O)Nc2ccccc2)c1C1CCCC1 [compound 8],selectivity for AtHMG1 in vitro (dose-response),AtHMG1,not selective
CC(C)n1c(/C=C/C(O)CC(O)CC(=O)O)c(-c2ccc(F)cc2)c2ccccc21 (stereo not shown) [fluvastatin],AtHMG1-L558T activity in the presence of statin,AtHMG1-L558T,retained activity
CC[C@H](C)C(=O)O[C@H]1C[C@@H](C)C=C2C=C[C@H](C)[C@H](CC[C@@H]3C[C@@H](O)CC(=O)O3)[C@H]21 [lovastatin],AtHMG1-L558T activity in the presence of statin,AtHMG1-L558T,retained activity
CC[C@H](C)C(=O)O[C@H]1CCC=C2C=C[C@H](C)[C@H](CC[C@@H]3C[C@@H](O)CC(=O)O3)[C@H]21 [mevastatin],AtHMG1-L558T activity in the presence of statin,AtHMG1-L558T,retained activity
O=C(O)C[C@H](O)C[C@H](O)/C=C/c1c(C2CC2)nc2ccccc2c1-c1ccc(F)cc1 [pitavastatin],AtHMG1-L558T activity in the presence of statin,AtHMG1-L558T,retained activity
CC[C@H](C)C(=O)O[C@H]1C[C@H](O)C=C2C=C[C@H](C)[C@H](CC[C@@H](O)C[C@@H](O)CC(=O)O)[C@H]21 [pravastatin],AtHMG1-L558T activity in the presence of statin,AtHMG1-L558T,retained activity
CC(C)c1nc(N(C)S(C)(=O)=O)nc(-c2ccc(F)cc2)c1/C=C/[C@@H](O)C[C@@H](O)CC(=O)O [rosuvastatin],IC50,AtHMG1,53 nM
same,35 S::AtHMG1-L558T lines less sensitive to treatment than 35 S::AtHMG1 lines,"[1]; 80 µM versus 5 µM, compared to untreated WT",up to 16 fold
same,resistance of 35 S::AtHMG1-L558T lines versus 35 S::AtHMG1 lines,[1]; in planta,over sixfold more resistant
same,resistance of 35 S::AtHMG1-L558T lines versus non-transformed WT,[1]; in planta,more than 100 fold
same,IC50,AtHMG1-L558T,> 1000 nM
same,AtHMG1-L558T activity in the presence of statin,AtHMG1-L558T,retained activity
same,resistance of AtHMG1-L558T versus WT in vitro,AtHMG1-L558T; in vitro,> 20 fold
same,IC50,[2],46000 nM
same,herbicidal activity,A. thaliana,most herbicidal statin
same,concentration lethal to A. thaliana,"A. thaliana; rosuvastatin without formulation beyond a wetting agent, Roundup formulated, same conditions",~ 15 μM
same,IC50,[3],3000 nM
CCC(C)(C)C(=O)O[C@H]1C[C@@H](C)C=C2C=C[C@H](C)[C@H](CC[C@@H]3C[C@@H](O)CC(=O)O3)[C@H]21 [simvastatin],AtHMG1-L558T activity in the presence of statin,AtHMG1-L558T,retained activity
